Measured values as given in patent publication US20060217405A1, “Interstitial cystitis treatment” (Indevus Pharmaceuticals, Inc., priority 2005, published 2006).

How the values were obtained:
[1] = test system: interstitial cystitis patients; conditions: bladder instillation; cited from earlier work
animals = conditions: animal studies; cited from earlier work
bladder afferent nerves = test: Intravesical trospium and carbachol experiments; assay type: in vivo; conditions: for direct effect on interstitial cystitis: trospium at low dose
From the text: The action of trospium is unique because it has selective activity on the bladder urothelium and bladder afferent nerves. The local trospium bladder effect is on the afferent nerve rather than bladder smooth muscle. The effect of intravesical administered trospium was not blocked by pre treatment of capsaicin or resiniferatoxin. This indicates the afferent nerve effect is that of A-delta and not C-fibers.

patients = test: Intravesicular instillation of trospium chloride in patients; assay type: in vivo, human
From the text: Trospium chloride is a quaternary ammonium compound that concentrates in the urine primarily unchanged and is believed to have local antispasmodic activity. […] Therefore the use of trospium, especially by intravesicular instillation, is a novel treatment for interstitial cystitis with the very low potential for systemic side effects.

female SD rats = test: Cystometrogram (CMG) in anesthetized rats after intravesical instillation; assay type: in vivo, rat; conditions: 0.5 mcg/ml, approx. 5 ml intravesical, 10-30 minutes, urethane anesthesia
Description: Baseline cystometrogram (CMG) is measured in a group of 6 female SD rats (250 grams). The rats are anesthetized utilizing urethane anesthesia at a rate of 1.2 g/kg. Trospium chloride at a concentration of 0.5 mcg/ml is administered by intravesical instillation. Approximately, 5 ml are instilled. The trospium solution is maintained in the rat bladder for a period of 10-30 minutes. At the end of that period the solution is expelled and the CMG measured.

[2] = cited from earlier work
human subject = test: Intravesical instillation of trospium chloride in human female subjects; assay type: in vivo; conditions: 0.5 mcg/ml twice daily intravesical
Description: A human subject, and weighing approximately 70 kg, presents with a sense of urgency and frequency to urinate, although they are not incontinent. The subject experiences pain and other pelvic discomfort, however, while attempting to urinate. Trospium chloride at a concentration of 0.5 mcg/ml is administered twice daily by intravesical instillation to the subject for a total dose of 2.0 mg trospium chloride per day. The dosing regimen is continued for six (6) weeks.
A human subject, and weighing approximately 60 kg, presents with incontinence. Trospium chloride at a concentration of 0.5 mcg/ml is administered twice daily by intravesical instillation to the subject for a total dose of 1.6 mg trospium chloride per day. The dosing regimen is continued for eight (8) months.

[3] = test system: interstitial cystitis patients; conditions: cited from earlier work

## C[S+](C)[O-] [DMSO, dimethyl sulfoxide]
[1]
  average duration of significant pain relief: about 10 months
  duration of garlic-like taste and odor on the breath and skin after treatment: up to 72 hours
  patients experiencing significant pain relief: About 50%
animals
  side effect of long-term treatment: cataracts

## C[N+](C)(C)CCOC(N)=O [carbachol]
Bladder afferent nerves; intravesical
  direct effect on interstitial cystitis: decreased

## O=C(O[C@H]1C[C@H]2CC[C@@H](C1)[N+]21CCCC1)C(O)(c1ccccc1)c1ccccc1 [trospium chloride]
patients
  absorption into the systemic circulation: little or no absorption
Bladder afferent nerves; intravesical
  effect of intravesical trospium after pre treatment of capsaicin or resiniferatoxin: not blocked
  direct effect on interstitial cystitis: no direct effect
Bladder afferent nerves; low dose of trospium
  effect on the inhibitory effect of carbachol: completely blocked
Female SD rats
  acetic-acid induced bladder overactivity: significantly suppressed
  bladder contractions during voiding: without affecting
[2]; in vivo
  metabolism: minimally metabolized
  protein binding: not highly protein-bound
[2]; oral 20 mg tablets
  plasma half-life: about 20 hrs
[2]; oral
  excreted through the feces: 85.2%
  excreted through urine (tubular secretion): 5.8%
  recognized side effects: dry mouth, constipation, headache urinary retention and dry eyes
Human subject; 1.6 mg per day, eight months, incontinence
  urge, frequency and incontinence episodes: significant reduction
Human subject; 2.0 mg per day, six weeks, urgency, frequency, pain
  pain when attempting to urinate: no longer experiences pain

## pentosan polysulfate sodium
[3]; oral Elmiron
  side effects: primarily gastrointestinal discomfort, although some patients experienced hair loss
[3]; oral, clinical trials, interstitial cystitis
  patients treated whose symptoms improved: 38%
